Data taken from ChEMBL document CHEMBL1156571, “ent-kaurane diterpenoids from the liverwort Jungermannia atrobrunnea” (2008).
In brackets after ≈: the same amount, converted by molar mass.

Test system: Candida albicans
Experiment: Antifungal activity against Candida albicans ATCC 10231 after 24 hrs by broth microdilution method
Settings: ATCC 10231, 24 h

SMILES	MIC [µg/mL]
C=C1[C@@H]2CC=C3[C@](C2)(C[C@H](O)[C@@H]2C(C)(C)CCC[C@@]32C)[C@@H]1OC(C)=O	128 (≈ 372 µM)
C=C1C(=O)[C@@H]2C3=C(C[C@H](OC(C)=O)[C@@H]4C(C)(C)CC[C@H](OC(C)=O)[C@@]34C)C[C@H]1[C@@H]2O	128 (≈ 307 µM)
C=C1C(=O)[C@@H]2C3=C(C[C@H]1[C@@H]2O)C[C@H](O)[C@@H]1C(C)(C)CC[C@H](OC(C)=O)[C@@]31C	128 (≈ 342 µM)
C=C1C(=O)[C@]23C[C@H]1C(=O)C=C2[C@]1(C)[C@@H](OC(C)=O)CCC(C)(C)[C@H]1[C@@H](OC(C)=O)C3	128 (≈ 309 µM)
C=C1C(=O)[C@@]23C[C@H](OC(C)=O)[C@@H]4C(C)(C)CC[C@H](OC(C)=O)[C@@]4(C)C2=C[C@@H](O)[C@@H]1C3	128 (≈ 307 µM)
C=C1C(=O)[C@@]23C[C@H](OC(C)=O)[C@@H]4C(C)(C)CC[C@H](O)[C@@]4(C)C2=C[C@@H](O)[C@@H]1C3	128 (≈ 342 µM)
CC(=O)O[C@H]1C[C@@]23C[C@@H](C(=O)C=C2[C@]2(C)[C@@H](OC(C)=O)CCC(C)(C)[C@@H]12)[C@@H](C)C3=O	128 (≈ 307 µM)
C=C1[C@H]2C[C@@]3(C[C@H](OC(C)=O)[C@@H]4C(C)(C)CCC[C@@]4(C)C3=CC2=O)[C@@H]1OC(C)=O	128 (≈ 320 µM)
C=C1[C@@H]2CC=C3[C@](C2)(C[C@H](OC(C)=O)[C@@H]2C(C)(C)CCC[C@@]32C)[C@@H]1OC(C)=O	128 (≈ 331 µM)
C=C1[C@H]2CC3=C[C@H](OC(C)=O)[C@@H]4C(C)(C)CC[C@H](OC(C)=O)[C@@]4(C)[C@@]34OO[C@]1(O)[C@H]4[C@H]2O [JUNGERMATROBRUNIN A]	128 (≈ 285 µM)
